Test results from US20030013660A1, “Dioxolane analogs for improved inter-cellular delivery” (Shire BioChem Inc., priority 2000, published 2003).
Values joined by “and” are separate entries in the source; they are usually repeats but may differ in a detail not shown here. Equal entries are not always repeated.

Columns and labels:
MCF-7 [1] = assay: 3H-TdR (3H-thymidine) incorporation assay at 72 hr; type: cell-based, Human; settings: Homo sapiens, 3H-TdR incorporation at 72 hr
SF-268 [2] = assay: 3H-TdR (3H-thymidine) incorporation assay at 72 hr; type: cell-based, Human; settings: Homo sapiens, 3H-TdR incorporation at 72 hr
H-460 [3] = assay: 3H-TdR (3H-thymidine) incorporation assay at 72 hr; type: cell-based, Human; settings: Homo sapiens, 3H-TdR incorporation at 72 hr
CCRF-CEM [4] = assay: 3H-TdR (3H-thymidine) incorporation assay at 72 hr; type: cell-based; settings: Homo sapiens, CCRF-CEM, read-out: IC50 CCRF-CEM 24 h, 24 h drug exposure, wash, another 48 hr; 3H-TdR incorporation at 72 hr
Protocol: (§1) Table of IC50 Values (μM) for Controls
(§2) Exposition of 24 hr to drug, wash, incubated for another 48 hr (total of 72 hr assay)
(§3) (3H-Thymidine Incorporation Assay)

CEM/dCK- [5] = assay: 3H-TdR (3H-thymidine) incorporation assay at 72 hr; type: cell-based; settings: for IC50: deoxycytidine kinase-deficient CCRF-CEM; for Factor* (Resistance Factor = Ratio of dCK- on Wild-type CCRF-CEM): ratio of IC50 CEM/dCK- to CCRF-CEM, 24 h
Protocol: as §1, §2, §3

CCRF-CEM [6] = assay: 3H-TdR incorporation at 72 hr (24 hr drug exposure, wash, 48 hr); type: cell-based; settings: read-out: IC50 in μM (3H-TdR incorporation at 72 hr) CCRF-CEM 24 h, CCRF-CEM T-cell Leukemia, 72 hr assay
Protocol: as §2, §3

CEM/dCK- [7] = assay: as above; type: cell-based; settings: for IC50: Homo sapiens, CCRF-CEM, read-out: IC50 in μM (3H-TdR incorporation at 72 hr) CEM/dCK- 24 h, CCRF-CEM deoxycytidine kinase-deficient, 24 h drug exposure, 72 hr assay; for Factor* (Resistance Factor = Ratio of dCK- on Wild-type CCRF-CEM): ratio of IC50 CEM/dCK- to IC50 CCRF-CEM
Protocol: as §2, §3

MCF-7 [8] = assay: as above; type: cell-based, Human
Protocol: as §2, §3

H-460 [9] = assay: as above; type: cell-based, Human
Protocol: as §2, §3

SF-268 [10] = assay: as above; type: cell-based, Human; settings: Homo sapiens, SF-268, read-out: IC50 in μM (3H-TdR incorporation at 72 hr) SF-268 24 h, SF-268 Human Central Nervous System Tumor; 24 h drug exposure, 72 hr assay
Protocol: as §2, §3

[11] = MCF7, read-out: IC50 MCF-7 24 h, 24 h drug exposure, wash, another 48 hr
[12] = SF-268, read-out: IC50 SF-268 24 h, 24 h drug exposure, wash, another 48 hr
[13] = NCI-H460, read-out: IC50 H-460 24 h, 24 h drug exposure, wash, another 48 hr
[14] = Homo sapiens, CCRF-CEM, read-out: IC50 CEM/dCK- 24 h, 24 h drug exposure, wash, another 48 hr
[15] = Homo sapiens, MCF7, read-out: IC50 in μM (3H-TdR incorporation at 72 hr) MCF-7 24 h, MCF-7 Human Breast Carcinoma, 72 hr assay
[16] = read-out: IC50 in μM (3H-TdR incorporation at 72 hr) MCF-7 24 h, MCF-7 Human Breast Carcinoma, 72 hr assay
[17] = Homo sapiens, NCI-H460, read-out: IC50 in μM (3H-TdR incorporation at 72 hr) H-460 24 h, H-460 Human Lung Carcinoma, 72 hr assay
[18] = read-out: IC50 in μM (3H-TdR incorporation at 72 hr) H-460 24 h, H-460 Human Lung Carcinoma, 72 hr assay
[19] = MCF7, read-out: IC50 MCF-7 (72 h), 72 h exposure
[20] = SF-268, read-out: IC50 SF-268 (72 h), 72 h exposure
[21] = NCI-H460, read-out: IC50 H-460 (72 h), 72 h exposure

## O=C(Nc1ccn([C@@H]2CO[C@H](CO)O2)c(=O)n1)OCCCCCl [Compound 160, [1-(2-HYDROXYMETHYL- [1,3]DIOXOLAN-4-YL)-2- OXO-1,2-DIHYDRO- PYRIMIDIN-4-YL]- CARBAMIC ACID 4-CHLORO- BUTYL ESTER]
MCF-7 [1]; [11]
  IC50: 360 nM
SF-268 [2]; [12]
  IC50: 1200 nM
H-460 [3]; [13]
  IC50: 920 nM
CCRF-CEM [4]
  IC50: 360 nM
CEM/dCK- [5]; [14]
  IC50: > 100000 nM
CEM/dCK- [5]
  Factor* (Resistance Factor = Ratio of dCK- on Wild-type CCRF-CEM): >278

## O=c1nc(NS(=O)(=O)c2ccc([N+](=O)[O-])cc2)ccn1[C@@H]1CO[C@H](CO)O1 [Compound 168, N-[1-(2-HYDROXYMETHYL- [1,3]DIOXOLAN-4-YL)-2- OXO-1,2-DIHYDRO- PYRIMIDIN-4-YL]-4- NITRO- BENZENESULFONAMIDE]
CCRF-CEM [6]; Homo sapiens, CCRF-CEM
  IC50: 31 µM
CCRF-CEM [6]
  IC50: 22 µM and 20 µM
CEM/dCK- [7]
  IC50: > 100 µM

## O=c1nc(NCNc2ccccc2)ccn1[C@@H]1CO[C@H](CO)O1 [Compound 172, 1-(2-HYDROXYMETHYL- [1,3]DIOXOLAN-4-YL)-4- (PHENYLAMINOMETHYL- AMINO)-1H-PYRIMIDIN-2- ONE]
MCF-7 [8]; [15]
  IC50: 0.019 µM
MCF-7 [8]; [16]
  IC50: 0.036 µM
H-460 [9]; [17]
  IC50: 0.014 µM
H-460 [9]; [18]
  IC50: 0.015 µM
CCRF-CEM [6]; Homo sapiens, CCRF-CEM
  IC50: 0.0074 µM
CCRF-CEM [6]
  IC50: 0.0085 µM

## Nc1ccn([C@@H]2CO[C@H](COC(=O)c3ccc(Cl)c(Cl)c3)O2)c(=O)n1 [Compound 187, 3,4-DICHLORO-BENZOIC ACID 4-(4-AMINO-2-OXO- 2H-PYRIMIDIN-1-YL)- [1,3]DIOXOLAN-2-YL METHYL ESTER]
MCF-7 [8]; [16]
  IC50: 0.0042 µM
H-460 [9]; [18]
  IC50: 0.0014 µM
CCRF-CEM [6]
  IC50: 0.0017 µM

## Nc1ccn([C@@H]2CO[C@H](COC(=O)c3ccc(C(F)(F)F)cc3)O2)c(=O)n1 [Compound 189, 4-TRIFLUOROMETHYL- BENZOIC ACID 4-(4- AMINO-2-OXO-2H- PYRIMIDIN-1-YL)- [1,3]DIOXOLAN-2-YL METHYL ESTER]
H-460 [9]; [18]
  IC50: 0.0012 µM
CEM/dCK- [7]
  Factor* (Resistance Factor = Ratio of dCK- on Wild-type CCRF-CEM): 1333 and 1300

## CC(=O)Oc1ccc(COC(=O)Nc2ccn([C@@H]3CO[C@H](CO)O3)c(=O)n2)cc1 [Compound 203, ACETIC ACID 4-[1-(2- HYDROXYMETHYL- [1,3]DIOXOLAN-4-YL)-2- OXO-1,2-DIHYDRO- PYRIMIDIN-4- YLCARBAMOYLOXYMETHYL]- PHENYL ESTER]
MCF-7 [8]; [15]
  IC50: < 0.0001 µM
H-460 [9]; [17]
  IC50: < 0.0001 µM
SF-268 [10]
  IC50: < 0.0001 µM

## Nc1ccn([C@@H]2CO[C@H](COC(=O)c3ccc([N+](=O)[O-])cc3)O2)c(=O)n1 [Compound 204, 4-NITRO-BENZOIC ACID 4- (4-AMINO-2-OXO-2H- PYRIMIDIN-1-YL)- [1,3]DIOXOLAN-2-YL METHYL ESTER]
H-460 [9]; [18]
  IC50: 0.015 µM
CEM/dCK- [7]
  Factor* (Resistance Factor = Ratio of dCK- on Wild-type CCRF-CEM): 1600

## Nc1ccn([C@@H]2CO[C@H](COC(=O)c3ccccc3-c3ccccc3)O2)c(=O)n1 [Compound 209, BIPHENYL-2-CARBOXYLIC ACID 4-(4-AMINO-2-OXO- 2#H!-PYRIMIDIN-1-YL)- [1,3]DIOXOLAN-2-YL METHYL ESTER]
MCF-7 [8]; [15]
  IC50: 1.3 µM
H-460 [9]; [17]
  IC50: 0.31 µM
SF-268 [10]
  IC50: 0.59 µM
CEM/dCK- [7]
  IC50: > 100 µM

## CC(C)(C)C(=O)Oc1ccc(COC(=O)Nc2ccn([C@@H]3CO[C@H](COC(=O)OCc4ccc(OC(=O)C(C)(C)C)cc4)O3)c(=O)n2)cc1 [Compound 212, 2,2-Dimethylpropionic Acid 4-(1-{2-[4-(2,2-dimethylpropionyloxy)benzyloxy Carbonyloxymethyl]-[1,3]dioxolan-4-yl}-2-oxo-1,2-dihydropyrimidin-4-ylcarbamoyloxymethyl)-phenyl Ester]
MCF-7 [8]; [15]
  IC50: 0.00059 µM
H-460 [9]; [17]
  IC50: 0.00011 µM
SF-268 [10]
  IC50: 0.018 µM
CEM/dCK- [7]
  IC50: 3.5 µM

## CC(C)(C)C(=O)Oc1ccc(COC(=O)Nc2ccn([C@@H]3CO[C@H](CO)O3)c(=O)n2)cc1 [Compound 213, 2,2-DIMETHYL-PROPIONIC ACID 4-[1-(2- HYDROXYMETHYL- [1,3]DIOXOLAN-4-YL)-2- OXO-1,2-DIHYDRO- PYRIMIDIN-4- YLCARBAMOYLOXYMETHYL]- PHENYL ESTER]
MCF-7 [8]; [15]
  IC50: 0.00027 µM
H-460 [9]; [17]
  IC50: ≤ 0.0001 µM
SF-268 [10]
  IC50: 0.012 µM
CEM/dCK- [7]
  IC50: 1.1 µM

## CC(C)(C)OC(=O)N(CCCCCCNC(=O)OC[C@H]1OC[C@@H](n2ccc(N)nc2=O)O1)Cc1ccccc1 [Compound 214, {6-[4-(4-AMINO-2-OXO- 2H-PYRIMIDIN-1-YL)- [1,3]DIOXOLAN-2- YLMETHOXYCARBONYLAMINO]-HEXYL}-BENZYL-CARBAMIC ACID TERT-BUTYL ESTER]
MCF-7 [8]; [15]
  IC50: 9.4 µM
H-460 [9]; [17]
  IC50: 9.4 µM
SF-268 [10]
  IC50: 89 µM
CEM/dCK- [7]
  IC50: > 100 µM

## Nc1ccn([C@@H]2CO[C@H](COC(=O)NCCCc3ccccc3)O2)c(=O)n1 [Compound 215, (3-PHENYL-PROPYL)- CARBAMIC ACID 4-(4- AMINO-2-OXO-2H- PYRIMIDIN-1-YL)- [1,3]DIOXOLAN-2-YL METHYL ESTER]
MCF-7 [8]; [15]
  IC50: 33 µM
H-460 [9]; [17]
  IC50: 3.9 µM
SF-268 [10]
  IC50: 96 µM
CEM/dCK- [7]
  IC50: > 100 µM

## CCCCC(CC)(CC)C(=O)OC[C@H]1OC[C@@H](n2ccc(N)nc2=O)O1 [Compound 218, 2,2-DIETHYL-HEXANOIC ACID 4-(4-AMINO-2-OXO- 2H-PYRIMIDIN-1-YL)- [1,3]DIOXOLAN-2-YL METHYL ESTER]
MCF-7 [8]; [15]
  IC50: 0.052 µM
H-460 [9]; [17]
  IC50: 0.0091 µM
SF-268 [10]
  IC50: 0.081 µM
CEM/dCK- [7]
  IC50: 60 µM

## CC(C)C(=O)OC[C@H]1OC[C@@H](n2ccc(N)nc2=O)O1 [Compound 275, ISOBUTYRIC ACID 4-(4- AMINO-2-OXO-2H- PYRIMIDIN-1-YL)- [1,3]DIOXOLAN-2-YL METHYL ESTER]
MCF-7 [1]; [19]
  IC50: 4.4 nM
SF-268 [2]; [20]
  IC50: 13 nM
H-460 [3]; [21]
  IC50: 1.2 nM
CCRF-CEM [4]
  IC50: 5.6 nM
CEM/dCK- [5]; [14]
  IC50: 51600 nM
CEM/dCK- [5]
  Factor* (Resistance Factor = Ratio of dCK- on Wild-type CCRF-CEM): 9,214

## CC(C)CC(=O)OC[C@H]1OC[C@@H](n2ccc(N)nc2=O)O1 [Compound 278, 3-METHYL-BUTYRIC ACID 4-(4-AMINO-2-OXO-2H- PYRIMIDIN-1-YL)- [1,3]DIOXOLAN-2-YL METHYL ESTER]
MCF-7 [1]; [11]
  IC50: 38 nM
MCF-7 [1]; [19]
  IC50: 23 nM
SF-268 [2]; [12]
  IC50: 93 nM
SF-268 [2]; [20]
  IC50: 13 nM
H-460 [3]; [13]
  IC50: 79 nM
H-460 [3]; [21]
  IC50: 2.4 nM
CCRF-CEM [4]
  IC50: 28 nM
CEM/dCK- [5]; [14]
  IC50: 71200 nM
CEM/dCK- [5]; read-out: IC50 CEM/dCK- 24 h, 24 h drug exposure, wash, another 48 hr
  IC50: 91000 nM

## CC(C)[C@H](N)C(=O)Nc1ccn([C@@H]2CO[C@H](CO)O2)c(=O)n1.O=C(O)C(F)(F)F [Compound 280, 2-Amino-N-[1-(2-hydoxymethyl-[1,3]dioxolan-4-yl)-2-oxo-1,2-dihydro-pyrimidin-4-yl]-3-methyl-butyramide; trifluoroacetic acid salt]
MCF-7 [1]; [11]
  IC50: 3100 nM
SF-268 [2]; [12]
  IC50: 18000 nM
H-460 [3]; [13]
  IC50: 1900 nM
CCRF-CEM [4]
  IC50: 1900 nM
CEM/dCK- [5]; [14]
  IC50: > 100000 nM
CEM/dCK- [5]
  Factor* (Resistance Factor = Ratio of dCK- on Wild-type CCRF-CEM): >53
